Our source for the IC50 and EC50 values is patent publication US10233195B2, “Anti-fibrotic pyridinones” (InterMune, Inc., priority 2014, dated 2019).

In assay [1] the test system is Fibroblasts (primary human lung and dermal, HFL-1, 3T3 etc). The experiment in a line: Cell proliferation assay (BrdU incorporation). Type of assay: cell-based. To be noted: HFL1, stimulant (LPA, TGFb, serum etc), 50% inhibition of the increase of BrdU incorporation. Here is the method:
Assay of Inhibitory Effect on Cell Proliferation (BrdU Incorporation)
Fibroblasts (primary human lung and dermal, HFL-1, 3T3 etc) were plated on a 96-well plate and serum starved for 24-48 hours. The media were then exchanged for media containing stimulants (LPA, TGFb, serum etc) and cultured further for 16-24 hours before BrdU addition. After culturing for another 8 hours, cells were washed with PBS and the amount of BrdU incorporated into the cells was assayed by absorbance at 450 nm using the Cell proliferation ELISA system (RPN250, Amersham LIFE SCIENCE). The difference between the amount of BrdU incorporated in the stimulant-added well and the amount of BrdU incorporated in the well containing no stimulant represented the amount of BrdU incorporation accelerated by stimulant. The increase of BrdU incorporation without the addition of test compounds was set as 100% and the concentration of compound with 50% inhibition in the increase of BrdU incorporation (IC50 value) was determined. The test compounds were added 0-30 min before stimulant addition.
Compounds of some embodiments were prepared according to synthetic methods described herein and assay data obtained for IC50 for BrdU inhibition. The assay data obtained is presented in Table 3, in which A=less than 50 μM, B=greater than or equal to 50 μM and less than or equal to 200 μM; and C=greater than 200 μM.

For assay [2], the system named is TGF-b induced Endothelin-1 production. The experiment in a line: ET-1 assay: inhibitory effect on TGF-b induced endothelin-1 production. Type of assay: cell-based. To be noted: Homo sapiens, Fibroblast; fibroblasts, stimulant (TGFb, serum, LPA etc), ET-1 in media by ELISA, 4-parameter fit. The procedure, abridged: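 Fibroblasts (primary human lung/dermal, HFL-1, 3T3) serum-starved 0-48 h, preincubated ~30 min with compound, then stimulated (TGFb, serum or LPA) for 16-48 h. Secreted ET-1 measured by ELISA; EC50 from 4-parameter logistic fit, with CC50 from ATPlite in the same wells.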
In general terms: ELISA stands for enzyme-linked immunosorbent assay.

On to `CCOc1ccc(Oc2cc(=O)n(-c3ccc(OC(F)(F)F)cc3)cc2-c2cnn(C)c2)cc1Cl` [Compound 155], for which the IC50 (in general, the concentration at which inhibition is half-maximal) in assay [1] was less than 50 µM.
In assay [1], `CCn1ncc2c(-c3cnn(C)c3)cn(-c3ccc(OC(F)(F)F)cc3)c(=O)c21` [Compound 658] registered an IC50 greater than 200 µM.
With `Cc1cc(=O)[nH]cc1-c1ccc2c(c1)N(C)C(=O)CO2` [Compound 662], the IC50 in assay [1] is greater than 200 µM.
In turn, `CCn1c(=O)oc2cc(-c3c[nH]c(=O)cc3C)ccc21` [Compound 564] came in with an IC50 in assay [1] of less than 50 µM.
`CCn1cnc2c(=O)n(-c3ccc(OC(F)(F)F)cc3)cc(-c3cn[nH]c3)c21` [Compound 640] gave an IC50 in assay [1] greater than 200 µM.
Regarding `CCOc1ccc(-n2cc(-c3cn(C)nc3C(F)(F)F)c(C)cc2=O)c(C)c1` [Compound 239], the IC50 in assay [1] is less than 50 µM.
As for `CC(=O)Nc1cccc(-n2cc(-c3ccc(F)cc3)c(C)cc2=O)c1` [Compound 172], the EC50 (usually the concentration at which the effect is half-maximal) in assay [2] is greater than 200 µM.
In assay [1], `Cn1cc(-c2cn(-c3ccc(OC(F)(F)F)cc3)c(=O)c3nsnc23)cn1` [Compound 41] had an IC50 of less than 50 µM.
Consider `O=c1cc(C(F)(F)F)c(-c2ccc(F)cc2)cn1-c1ccc(OC(F)(F)F)cc1` [Compound 205], for which the EC50 in assay [2] was in the range of 50 to 200 µM.
`Cn1cc(-c2cn(-c3ccc(OC(F)(F)F)cc3)c(=O)c3cc[nH]c23)cn1` [Compound 695] came in with an EC50 in assay [2] of less than 50 µM.
Turning to `Cc1ccc(F)c(-c2ccccc2)c1` [Compound 440], in assay [2], the EC50 is greater than 200 µM.
Take `CCOc1ccc(-n2cc(Br)ccc2=O)c(C)c1` [Compound 273]: in assay [2], the EC50 was greater than 200 µM.
In turn, `CC(=O)c1ccc(=O)n(-c2cccc(F)c2)c1` [Compound 15] came in with an EC50 in assay [2] greater than 200 µM.
As for `O=C1CCCN1CCOc1cc(=O)n(-c2ccc(OC(F)(F)F)cc2)cc1-c1ccc(F)cc1` [Compound 97], the EC50 in assay [2] is greater than 200 µM.
In assay [2], `Cc1cc(=O)n(-c2ccc(C(F)(F)F)cc2)cc1-c1cnn(C)c1` [Compound 228] displayed an EC50 of 50 to 200 µM.
For `Cn1cc(-c2cn(-c3ccc(OC(F)(F)F)cc3)c(=O)cc2C(F)(F)F)cn1` [Compound 240], in assay [2], the EC50 was greater than 200 µM.
The same measure, in the same setting: the result for `CC(=O)Nc1cc(=O)n(-c2ccc(OC(F)(F)F)cc2)cc1-c1ccc(F)cc1` [Compound 104] reads greater than 200 µM.
On the same count and under the same terms, the result for `Cc1cc(=O)n(-c2ccc(Cl)cc2C)cc1-c1ccccc1` [Compound 169] reads 50 to 200 µM; that for `Cc1cc(=O)n(-c2ccc3[nH]cnc3c2)cc1-c1cnn(C)c1` [Compound 233], greater than 200 µM.
Same read-out and setting: the result for `Cc1cc(=O)n(-c2ccccc2)cc1-c1ccc(F)cc1` [Compound 176] reads 50 to 200 µM.
Turning to `C#Cc1ccc(=O)n(-c2ccccc2)c1` [Compound 287], the EC50 in assay [2] is greater than 200 µM.
For `Cn1cc(-c2cn(-c3ccc(OC(F)(F)F)cc3)c(=O)cc2OCc2ccccc2)cn1` [Compound 143], the EC50 in assay [2] is greater than 200 µM.
In assay [2], `Cc1cc(=O)n(-c2ccc(OC(F)(F)F)cc2)cc1-c1ccc2c(c1)OCC(=O)N2CCO` [Compound 566] had an EC50 greater than 200 µM.
The molecule `O=c1ccc(C2CCCC2)cn1-c1ccccc1` [Compound 64] showed an EC50 in assay [2] of 50 to 200 µM.
In assay [2], `CC(C)OC(=O)Nc1cc(=O)n(-c2ccc(OC(F)(F)F)cc2)cc1-c1ccc(F)cc1` [Compound 112] displayed an EC50 greater than 200 µM.
The molecule `O=c1ccc(Br)cn1-c1ccc(Cl)cc1` [Compound 269] displayed an EC50 in assay [2] greater than 200 µM.
In the case of `Cc1cc(C)c(=O)n(-c2ccccc2)c1` [Compound 349], the half-maximal effective concentration (EC50) in assay [2] was greater than 200 µM.
On to `O=c1c2c(ccn2Cc2ccccc2)c(-c2ccc(F)cc2)cn1-c1ccc(OC(F)(F)F)cc1` [Compound 392], for which the concentration for a half-maximal effect (EC50) in assay [2] is greater than 200 µM.
On the same count and under the same terms, the figure for `O=c1ccc(-c2cccc(Cl)c2)cn1-c1ccccc1F` [Compound 324] is 50 to 200 µM; for `CCn1cnc2c(-c3cnn(C(C)C)c3)cn(-c3ccc(OC(F)(F)F)cc3)c(=O)c21` [Compound 671] it is less than 50 µM; for `CCOc1ccc(-n2cc(-c3cnn(C)c3)c(OCCOCCOC)cc2=O)c(C)c1` [Compound 697] it is 50 to 200 µM.
The molecule `Cn1cc(-c2cn(-c3ccc(OC(F)(F)F)cc3)c(=O)cc2N2CCc3ccccc3C2)cn1` [Compound 129] had an EC50 in assay [2] of 50 to 200 µM.
`CCOc1ccc(-n2cc(-c3ccc(F)cc3)c(Cl)cc2=O)c(C)c1` [Compound 541] showed an EC50 in assay [2] greater than 200 µM.
In assay [2], `Cn1cc(-c2cn(-c3ccc(OC(F)(F)F)cc3)c(=O)cc2Oc2ccccc2F)cn1` [Compound 408] came in with an EC50 greater than 200 µM.
`Cc1cc(=O)n(-c2ccc(OC(F)(F)F)cc2C)cc1-c1ccc(F)cc1` [Compound 186]: in assay [2], the EC50 was less than 50 µM.
Still for that read-out and setting: the result for `O=C1Cc2ccccc2N1c1ccc(OC(F)(F)F)cc1` [Compound 81] reads 50 to 200 µM.
On the same count and under the same terms, the figure for `O=c1c2[nH]cnc2c(-c2cn[nH]c2)cn1-c1ccc(OC(F)(F)F)cc1` [Compound 672] is less than 50 µM; for `COc1ccc(-c2ccc(=O)n(-c3ccccc3Cl)c2)cc1` [Compound 310] it is 50 to 200 µM.
As for `Cc1cc(=O)n(-c2ccc(OC(F)(F)F)cc2)cc1-c1nnn(C)n1` [Compound 256], in assay [2], the EC50 is greater than 200 µM.
`CCCNC(=O)c1cc(=O)n(-c2ccc(OC(F)(F)F)cc2)cc1-c1cnn(C)c1` [Compound 159]: the EC50 in assay [2] is greater than 200 µM.
The same measure, in the same setting: the result for `Cc1cc(=O)n(-c2ccc(OC(F)(F)F)cc2)cc1-c1ccnn1C` [Compound 247] reads greater than 200 µM.
Same read-out and setting: the figure for `Cc1cc(=O)n(-c2ccc(F)cc2)cc1-c1ccc(OC(F)(F)F)cc1` [Compound 212] is 50 to 200 µM; for `COc1ccc(-n2cc(-c3cn[nH]c3)ccc2=O)cc1` [Compound 370] it is greater than 200 µM.
In assay [2], `COc1cccc(-n2cc(-c3ccc(S(N)(=O)=O)cc3)ccc2=O)c1` [Compound 331] came in with an EC50 greater than 200 µM.
Molecule `CC(=O)Nc1cccc(-n2cc(Br)ccc2=O)c1` [Compound 271] came in with an EC50 in assay [2] greater than 200 µM.
As for `O=c1ccc(-c2cncnc2)cn1-c1cccc(F)c1` [Compound 345], the EC50 in assay [2] was greater than 200 µM.
`Cc1cc(=O)n(-c2cccc(C(F)(F)F)c2)cc1-c1ccccc1` [Compound 163] returned an EC50 in assay [2] of less than 50 µM.
The molecule `CCOc1ccc(-n2cc(-c3ccc4scnc4c3)c(C)cc2=O)c(C)c1` [Compound 552] displayed an EC50 in assay [2] greater than 200 µM.
On the same count and under the same terms, the result for `Cc1cc(=O)n(-c2ccc3c(c2)OCCO3)cc1-c1ccc(F)cc1` [Compound 182] reads greater than 200 µM; that for `CN1CCN(CCOc2cc(=O)n(-c3ccc(OC(F)(F)F)cc3)cc2-c2ccc(F)cc2)CC1` [Compound 100], less than 50 µM.
In assay [2], `CCn1ccc2c(-c3cn[nH]c3)cn(-c3ccc(OC(F)(F)F)cc3)c(=O)c21` [Compound 593] gave an EC50 of less than 50 µM.
Molecule `CCOc1ccc(-n2cc(-c3ccc(F)cc3)c3nccnc3c2=O)c(C)c1` [Compound 62] showed an EC50 in assay [2] greater than 200 µM.
Same read-out and setting: the result for `O=c1ccc(-c2cn[nH]c2)cn1-c1ccc(F)cc1` [Compound 377] reads 50 to 200 µM.
Turning to `Cc1cc(=O)n(-c2cccc3c2OCCO3)cc1-c1cnn(C)c1` [Compound 231], the EC50 in assay [2] was in the range of 50 to 200 µM.
Same read-out and setting: the figure for `O=c1ccc(Br)cn1-c1ccc(F)cc1` [Compound 265] is greater than 200 µM; for `CCOc1ccc(-n2cc(-c3cnn(C)c3)c(OCCOC(C)C)cc2=O)c(C)c1` [Compound 696] it is 50 to 200 µM.
Molecule `CCOc1ccc(-n2cc(-c3cn[nH]c3)c3ncccc3c2=O)c(C)c1` [Compound 580] yielded an EC50 in assay [2] of less than 50 µM.
Still for that read-out and setting: the figure for `O=c1ccc(-c2ccccc2)cn1-c1ccccc1Cl` [Compound 302] is 50 to 200 µM; for `COCCOc1ccc(Oc2cc(=O)n(-c3ccc(OC(F)(F)F)cc3)cc2-c2cnn(C)c2)cc1` [Compound 533] it is 50 to 200 µM; for `O=c1cc(OC2CCS(=O)(=O)CC2)c(-c2ccc(F)cc2)cn1-c1ccc(OC(F)(F)F)cc1` [Compound 99] it is less than 50 µM.
In the case of `O=C(NCc1ccccc1)Nc1cc(=O)n(-c2ccc(OC(F)(F)F)cc2)cc1-c1ccc(F)cc1` [Compound 116], the EC50 in assay [2] is greater than 200 µM.
Molecule `CC(=O)Nc1cccc(-n2cc(C(C)=O)ccc2=O)c1` [Compound 18] showed an EC50 in assay [2] greater than 200 µM.
Still for that read-out and setting: the result for `Cc1ccc(=O)n(Cc2ccccc2)c1` [Compound 78] reads greater than 200 µM; that for `CC(C)Oc1ccc(-n2cc(-c3cn[nH]c3)ccc2=O)cc1` [Compound 369], 50 to 200 µM; that for `C[C@H]1CCC(=O)N(c2ccccc2)C1` [Compound 83], greater than 200 µM.
The molecule `O=c1cc(OCCN2CCS(=O)(=O)CC2)c(-c2ccc(F)cc2)cn1-c1ccc(OC(F)(F)F)cc1` [Compound 94] registered an EC50 in assay [2] greater than 200 µM.
For the molecule `O=c1cc(OCCN2CCOCC2)c(-c2ccc(F)cc2)cn1-c1ccc(OC(F)(F)F)cc1` [Compound 92], in assay [2], the EC50 lay within 50 to 200 µM.
Regarding `COc1cc(=O)n(-c2ccc(OC(F)(F)F)cc2)cc1-c1ccc(F)cc1` [Compound 85], the 50% effective concentration (EC50) in assay [2] was greater than 200 µM.
Turning to `CN1CCC(Oc2cc(=O)n(-c3ccc(OC(F)(F)F)cc3)cc2-c2ccc(F)cc2)CC1` [Compound 95], the EC50 in assay [2] was less than 50 µM.
`Cc1nc2c(=O)n(-c3ccc(OC(F)(F)F)cc3)cc(-c3cnn(C)c3)c2n1C` [Compound 674]: in assay [2], the EC50 was 50 to 200 µM.
